For experiment [1], the system named is control sera (pooled serum of ten healthy LUMC hospital workers; commercial negative donor pooled serum from the Dutch bloodbank). The experiment is classed as binding, human. More on the design: Binding of Control serum LUMC to linear peptides / Binding of Control serum Blood-bank to linear peptides / Binding of Control serum LUMC to looped peptides / Binding of Control Serum Blood-Bank to Looped peptides / Binding of Control serum LUMC to linear peptides of the protein M of SARS-CoV Urbani / Binding of Control serum Blood-bank to linear peptides of the protein M of SARS-CoV Urbani / Binding of Control serum LUMC to looped peptides of the protein M of SARS-CoV Urbani / Binding of Control Serum Blood-Bank to Looped peptides of the protein M of SARS-CoV Urbani: unit not given here.

The subject of experiment [2] is antibodies in sera from SARS patients (sera 1a, 1b, 2, 6, 37, 62, London, SARS-yellow, SARS-green). The experiment is classed as binding, human. More on the design: Binding of serum 6 to linear peptides of protein X1 of SARS-CoV Urbani / Binding of serum 37 to linear peptides of protein X1 of SARS-CoV Urbani / Binding of serum 6 to looped/cyclic peptide (PEPSCAN-ELISA) / Binding of serum 37 to looped/cyclic peptide (PEPSCAN-ELISA) / Binding of serum 37 to looped/cyclic peptides of protein X1 of SARS-CoV Urbani / Binding of serum 6 to linear peptides of protein X2 / Binding of serum 37 to linear peptides of protein X2 / Binding of serum 37 to looped/cyclic peptides of protein X2 of SARS-CoV Urbani / Binding of serum 6 to linear peptides of protein M of SARS-CoV Urbani / Binding of serum 37 to linear peptides of protein M of SARS-CoV Urbani / Binding of serum 6 to looped/cyclic peptides of protein M of SARS-CoV Urbani / Binding of serum 37 to looped/cyclic peptides of protein M of SARS-CoV Urbani / Binding of serum 6 to linear peptides of protein X3 of SARS-CoV Urbani / Binding of serum 37 to linear peptides of protein X3 of SARS-CoV Urbani / Binding of serum 37 to looped/cyclic peptides of protein X3 of SARS-CoV Urbani / Binding of serum 6 to linear peptides of protein X4 of SARS-CoV Urbani / Binding of serum 37 to linear peptides of protein X4 of SARS-CoV Urbani / Binding of serum 37 to looped/cyclic peptides of protein X4 of SARS-CoV Urbani / Binding of serum 6 to linear peptides of protein X5 of SARS-CoV Urbani / Binding of serum 37 to linear peptides of protein X5 of SARS-CoV Urbani / Binding of serum 37 to looped/cyclic peptides of protein X5 of SARS-CoV Urbani / Binding of serum 6 to linear peptides of protein N of SARS-CoV Urbani / Binding of serum 37 to linear peptides of protein N of SARS-CoV Urbani / Binding of serum 6 to linear peptide (PEPSCAN-ELISA) / Binding of serum 1a to looped/cyclic peptides of protein N of SARS-CoV Urbani / Binding of serum 1b to looped/cyclic peptides of protein N of SARS-CoV Urbani / Binding of serum 2 to looped/cyclic peptides of protein N of SARS-CoV Urbani / Binding of serum 6 to looped/cyclic peptides of protein N of SARS-CoV Urbani / Binding of serum 37 to looped/cyclic peptides of protein N of SARS-CoV Urbani / Binding of serum 62 to looped/cyclic peptides of protein N of SARS-CoV Urbani / Binding of serum London to looped/cyclic peptides of protein N of SARS-CoV Urbani / Binding of serum SARS-green to looped/cyclic peptides of protein N of SARS-CoV Urbani: unit not given here.

For experiment [3], the system named is rabbit serum obtained by immunizing a rabbit with the SARS-CoV strain Frankfurt 1. The format is binding. More on the design: Binding of a rabbit serum to linear peptides / Binding of a rabbit serum to looped peptides / Rabbit serum linear peptides / Rabbit serum looped peptides / Binding of a rabbit serum to linear peptides of protein N of SARS-CoV Urbani (Rabbit serum linear peptides) / Binding of a rabbit serum to looped/cyclic peptides of protein N of SARS-CoV Urbani (Rabbit serum looped peptides): unit not given here.

Here are results for two sequences from patent US20070128217A1 (priority 2003, published 2007).

Turning to SLPFGWLVIGVAFLA, in experiment [1], the “Binding of Control Serum Blood-Bank to Looped peptides” value stood at 0.4, the “Binding of Control serum Blood-bank to linear peptides” value is given as 0.6, the “Binding of Control serum LUMC to linear peptides” value amounted to 0.6 and the “Binding of Control serum LUMC to looped peptides” value is given as 0.3. For the same sequence, in experiment [2], the “Binding of serum 1a to linear peptides of protein X1 of SARS-CoV Urbani” value is recorded as 0.7, the “Binding of serum 1a to looped/cyclic peptide (PEPSCAN-ELISA)” value stood at 0.3, the “Binding of serum 1b to linear peptides of protein X1 of SARS-CoV Urbani” value is recorded as 0.6 and the “Binding of serum 1b to looped/cyclic peptide (PEPSCAN-ELISA)” value is reported as 0.2. Besides, in experiment [2], the “Binding of serum 2 to linear peptides of protein X1 of SARS-CoV Urbani” value is reported as 0.5, the “Binding of serum 2 to looped/cyclic peptide (PEPSCAN-ELISA)” value is recorded as 0.2, the “Binding of serum 6 to linear peptides of protein X1 of SARS-CoV Urbani” value is given as 0.4 and the “Binding of serum 6 to looped/cyclic peptide (PEPSCAN-ELISA)” value was found to be 0.0. In addition, in experiment [2], the “Binding of serum 37 to linear peptides of protein X1 of SARS-CoV Urbani” value was 0.6, the “Binding of serum 37 to looped/cyclic peptide (PEPSCAN-ELISA)” value is 0.3, the “Binding of serum 62 to linear peptides of protein X1 of SARS-CoV Urbani” value was 0.5 and the “Binding of serum 62 to looped/cyclic peptide (PEPSCAN-ELISA)” value was determined as 0.3. Also, in experiment [2], the “Binding of serum London to linear peptides of protein X1 of SARS-CoV Urbani” value is 0.2, the “Binding of serum London to looped/cyclic peptide (PEPSCAN-ELISA)” value was determined as 0.2, the “Binding of serum SARS-green to linear peptides of protein X1 of SARS-CoV Urbani” value worked out at 0.2 and the “Binding of serum SARS-green to looped/cyclic peptide (PEPSCAN-ELISA)” value is listed as 0.3. Further, in experiment [2], the “Binding of serum SARS-yellow to linear peptides of protein X1 of SARS-CoV Urbani” value was 0.4 and the “Binding of serum SARS-yellow to looped/cyclic peptide (PEPSCAN-ELISA)” value is reported as 0.2. Also, in experiment [3], the “Binding of a rabbit serum to linear peptides” value was 0.4 and the “Binding of a rabbit serum to looped peptides” value is on record as 0.1.

Turning to SLYMAISPKFTTSLS, in experiment [1], the “Binding of Control Serum Blood-Bank to Looped peptides” value is 0.6, the “Binding of Control serum Blood-bank to linear peptides” value is given as 0.7, the “Binding of Control serum LUMC to linear peptides” value is listed as 0.6 and the “Binding of Control serum LUMC to looped peptides” value worked out at 0.9. Besides, in experiment [2], the “Binding of serum 1a to linear peptides of protein X2” value amounted to 0.7, the “Binding of serum 1a to looped/cyclic peptides of protein X2 of SARS-CoV Urbani” value was 0.6, the “Binding of serum 1b to linear peptides of protein X2” value is reported as 0.5 and the “Binding of serum 1b to looped/cyclic peptides of protein X2 of SARS-CoV Urbani” value is 0.6. In experiment [2], the “Binding of serum 2 to linear peptides of protein X2” value is recorded as 0.5, the “Binding of serum 2 to looped/cyclic peptides of protein X2 of SARS-CoV Urbani” value is on record as 0.3, the “Binding of serum 6 to linear peptides of protein X2” value is listed as 0.4 and the “Binding of serum 6 to looped/cyclic peptides of protein X2 of SARS-CoV Urbani” value is 0.4. In addition, in experiment [2], the “Binding of serum 37 to linear peptides of protein X2” value was 0.6, the “Binding of serum 37 to looped/cyclic peptides of protein X2 of SARS-CoV Urbani” value is given as 0.4, the “Binding of serum 62 to linear peptides of protein X2” value was determined as 0.6 and the “Binding of serum 62 to looped/cyclic peptides of protein X2 of SARS-CoV Urbani” value is reported as 0.5. In addition, in experiment [2], the “Binding of serum London to linear peptides of protein X2” value came out at 0.6, the “Binding of serum London to looped/cyclic peptides of protein X2 of SARS-CoV Urbani” value is given as 0.3, the “Binding of serum SARS-green to linear peptides of protein X2” value amounted to 0.6 and the “Binding of serum SARS-green to looped/cyclic peptides of protein X2 of SARS-CoV Urbani” value stood at 0.5. Besides, in experiment [2], the “Binding of serum SARS-yellow to linear peptides of protein X2” value is recorded as 0.6 and the “Binding of serum SARS-yellow to looped/cyclic peptides of protein X2 of SARS-CoV Urbani” value was determined as 0.6. Further, in experiment [3], the “Binding of a rabbit serum to linear peptides” value worked out at 0.2 and the “Binding of a rabbit serum to looped peptides” value is given as 0.3.
